Patent EP1200406B1, “CYCLIC AMIDES AND IMIDES HAVING SELECTIVE ANTAGONIST ACTIVITY AT ALPHA-1D ADRENERGIC RECEPTOR” (RECORDATI INDUSTRIA CHIMICA E FARMACEUTICA S.p.a., priority 1999, dated 2001)

Tests used:
[1] = tested on: conscious rats with partial bladder-outlet obstruction; assay: Cystometry in conscious rats with infravesical outflow obstruction by partial urethral ligature; format: in vivo, Female Sprague Dawley rats; settings: 0.3 mg/kg i.v.
Experimental: Effects on cystometric parameters in conscious rats with […] outflow obstruction by partial urethral ligature. Female Sprague Dawley rats of 225-275 g body weight [Crl: CD(SD)BR, from Charles River Italia, Calco, Como] were used. The animals were housed with free access to food and water and maintained on a forced 12 hour alternating light dark cycle at 22-24°C for at least one week, except during experiment performance. In order to obtain a partial obstruction of the urethra, the method previously reported by Malmgren (Malmgren A. et al., J. UroL 137, 1291-1294, 1987; Neurourol. […] Pharmacol. […] The rats were anaesthetised with intraperitoneal (i.p.) administration of 3 ml/kg of Equithensin solution (pentobarbital 1.215 g, chloral hydrate 5.312 g, magnesium sulphate 2.657 g, ethanol 12.5 ml, propylene glycol 49.5 ml, distilled water to 125 ml of final volume) and then the bladder and proximal urethra were exposed via an abdominal midline incision. A silk ligature was placed around the urethra and tied in the presence of an intraluminally placed indwelling polyethylene cannula with an outside diameter of 1.22 mm. After removing the polyethylene cannula, the abdominal wall was sutured and then antibiotic medication (penicillin G 200000 I.U./kg and streptomycin 260 mg/kg i.p.) was performed. After three weeks of obstruction the animals were prepared for cystometry. The animals, anesthetized as reported above, were placed in a supine position and a midline incision was made in the shaved and cleaned abdominal wall. The urinary bladder was exposed and gently freed from adhering tissues, emptied and then cannulated, via an incision at the dome, with a polyethylene cannula (0.58 mm inside diameter and 0.96 mm outside diameter), which was permanently sutured with silk thread. For intravenous bolus injection a similar polyethylene tubing filled with physiological saline containing sodium heparin (40 I.U./ml) was inserted into the jugular vein. The cannulae were exteriorised through a subcutaneous tunnel in the retroscapular area, where they were connected with a plastic adapter, in order to avoid the risk of removal by the animal. Two days after bladder catheter implantation, the animals, fasted overnight, were placed in Bollman's cages or in particular plastic cages which allowed some lateral and back and forth movement of the rats, allowing measurements of micturition volume (MV). After a stabilisation period of 20 minutes, the free tip of the bladder cannula was connected to a pressure transducer and to a peristaltic pump for a continuous infusion of warm saline solution (37° C), into the urinary bladder. In order to shorten the time-period of saline infusion necessary to provoke micturition in the obstructed rats, a filling rate of the bladder of 10 ml/h was chosen. During infusion of saline into the bladder, the intravesical pressure signal and urine volume micturated were continuously recorded on chart polygraph. […] BVC (in ml) was defined as the volume of saline infused into the bladder from the start of the infusion to micturition. […] MV (in ml), defined as the volume of expelled urine during each single micturition, was recorded by means of a force displacement transducer connected to the polygraph and measuring the urine collected in a small reservoir placed under the cage. Basal values of the parameters above reported were evaluated as the mean of the values obtained in two complete and reproducible cystometrograms before treatment (time 0). Then the animals were treated intravenously by bolus injection with the test compound under continuous infusion of saline into the bladder. The parameter changes after compound injection (first cystometrogram and those recorded approximately after 30 and 60 minutes) were compared with the values recorded before injection (basal values).

[2] = target: T1, Rat aorta α1D (Rattus norvegicus, UniProt P23944); assay: Functional antagonism of noradrenaline-induced contraction, rat aorta strips; format: cell-based, Sprague Dawley rats; settings: noradrenaline as agonist, 30 minutes incubation, Schild plot; read-out: Functional affinity pKB, Rat aorta α1D (converted)
T1 construct: from tissue; host or cells: rat thoracic aorta, helicoidal strips
T1 sequence (P23944 1-561): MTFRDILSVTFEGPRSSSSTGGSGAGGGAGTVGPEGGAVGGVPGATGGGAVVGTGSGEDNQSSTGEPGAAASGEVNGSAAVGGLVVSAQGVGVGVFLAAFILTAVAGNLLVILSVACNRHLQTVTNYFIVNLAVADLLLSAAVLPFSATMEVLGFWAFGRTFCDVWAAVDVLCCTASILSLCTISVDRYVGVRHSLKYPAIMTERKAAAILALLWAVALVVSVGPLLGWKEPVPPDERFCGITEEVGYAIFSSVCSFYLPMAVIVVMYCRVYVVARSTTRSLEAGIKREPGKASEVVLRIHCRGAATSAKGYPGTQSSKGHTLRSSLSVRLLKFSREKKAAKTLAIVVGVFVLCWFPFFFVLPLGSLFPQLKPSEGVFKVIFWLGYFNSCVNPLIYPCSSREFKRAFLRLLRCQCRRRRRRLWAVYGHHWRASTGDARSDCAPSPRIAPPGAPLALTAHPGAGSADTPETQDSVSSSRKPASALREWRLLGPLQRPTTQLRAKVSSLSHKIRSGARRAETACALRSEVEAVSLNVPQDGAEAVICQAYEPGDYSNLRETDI
Experimental: In vitro assessment of functional antagonism for α1-adrenoceptor subtypes
Thoracic aorta was obtained from Sprague Dawley rats, cut in helicoidal strips and placed in Krebs solution containing desmethylimipramine (0.1 µM), corticosterone (1 µM), propranol (1 µM) and yohimbine (0.1 µM). The strips were mounted for isotonic tension recording in an organ bath containing the above Krebs buffer enriched and aerated constantly with 95% O2 and 5% CO2, maintained at 37°C and loaded with 1.5 g. After an equilibration period, the strips were primed twice with 10 µM noradrenaline, then concentration/response-to-the-agonist curves were constructed before (basal) and after 30 minutes incubation with single antagonist concentrations (response). The Schild-plot parameters were evaluated by linear-regression analysis according to Tallarida and Murray (Manual of Pharmacologic Calculations with Computer Programs, 53-56, Springer-Verlag).

O=C1CC2(CCCC2)CC(=O)N1CCN1CCN(c2cc(Cl)ccc2Cl)CC1 [Example 1, 8-{2-[4-(2,5-Dichlorophenyl)-1-piperazinyl]-ethyl}-8-azaspiro[4.5]decane-7,9-dione]
BVC mean values, change [1]: 20-30% | changes in MP values [1]: no significant changes | BVC (bladder volume capacity), % changes vs basal values ([1]; 30 minutes): 22% | MP (micturition pressure), % changes vs basal values ([1]; 30 minutes): -7% | MV (micturition volume), % changes vs basal values ([1]; 30 minutes): 42% | NMC – A (non-micturition contractions, amplitude), % changes vs basal values ([1]; 30 minutes): -33% | NMC – F (non-micturition contractions, frequency), % changes vs basal values ([1]; 30 minutes): -38% | BVC (bladder volume capacity), % changes vs basal values ([1]; 60 minutes): 30% | MP (micturition pressure), % changes vs basal values ([1]; 60 minutes): -6% | MV (micturition volume), % changes vs basal values ([1]; 60 minutes): 28% | NMC – A (non-micturition contractions, amplitude), % changes vs basal values ([1]; 60 minutes): -38% | NMC – F (non-micturition contractions, frequency), % changes vs basal values ([1]; 60 minutes): -23% | BVC (bladder volume capacity), % changes vs basal values ([1]; First cystometrogram): 26% | MP (micturition pressure), % changes vs basal values ([1]; First cystometrogram): -2% | MV (micturition volume), % changes vs basal values ([1]; First cystometrogram): 35% | NMC – A (non-micturition contractions, amplitude), % changes vs basal values ([1]; First cystometrogram): -35% | NMC – F (non-micturition contractions, frequency), % changes vs basal values ([1]; First cystometrogram): -24% | frequency and amplitude of the non-voiding contractions ([1]; immediately after the injections): rapid decrease | Kb [2]: 1.02 nM
